Source: article PMC8819291, “Adaptively evolved human oral actinomyces‐sourced defensins show therapeutic potential” (EMBO Molecular Medicine, 2021)
pKd: −log10 of the molar value. “Also recorded” adds a separate entry of the source. Read-outs that look alike come from different tables or passages of the source. Where a SMILES comes first, the peptide text is derived from it. Bridges are numbered along the chain shown (N, C = ends).

How the values were obtained:
[1] = test system: gram‐positive bacteria; test: Inhibition-zone assay, groups of strains; assay type: cell-based
Text: Bacterial media used here included: Luria‐Bertani (LB) medium, THY medium (30 g Todd Hewitt broth and 5 g Yeast extract per liter), and tryptic soy broth (TSB) (Oxoid, Basingstoke, UK); Broth medium and brain–heart infusion (BHI) medium (Beijing Landbridge technology Limited by Share Ltd., Beijing, China); Potato dextrose (PD) medium (self‐prepared).
In brief, an overnight bacterial culture from a single colony was inoculated into fresh medium and grew to late log‐phase. A 10‐μl aliquot of each culture was diluted in 6‐ml pre‐heated medium containing 0.8% agar. The mixture was spread on a 9‐cm Petri dish, giving a depth of 1 mm. After settling, 3‐mm wells were punched in the plate and then 2‐μl peptide samples of different concentrations were added to each well. The agar plates were incubated overnight at indicated temperatures (Table EV4). A lethal concentration (C L ) was calculated from a plot of d^2 against log n, where d is the diameter (in cm) and n is the amount of sample applied in the well (in nmol). The plot is linear, and thus C L can be calculated from the slope (k) and the intercept (m) of this plot.

[2] = undiluted human serum (Human Serum AB), 0, 24 and 48 h, 37°C; read-out MRSA P1374, 1.0 nmol/well
[3] = test system: salmon sperm DNA; settings: 1.0 nmol AMSIN + salmon sperm DNA 6.6 mg/ml
Description: The rationality behind this experiment is that if a reduction in the inhibition‐zone size in the presence of DNA, it would indicate that the peptide binding to the DNA causes the loss of antibacterial activity. […] Inhibition zones were recorded and compared with the control without the DNA.

[4] = test system: BM cells (Bacillus megaterium); test: Scanning electron microscope observation of cell deformation; assay type: cell-based; settings: 10 × C L, 37°C, 90 min
Description: After centrifugation, bacterial pellets were fixed with 2.5% glutaraldehyde for 1 h, followed by washing three times with PBS buffer (pH 7.3). Dehydration was carried out with a series of graded ethanol solutions. Cells were then dried by BAL‐TEC CPD‐030 critical point dryer (Bal‐Tec AG, Balzers, Liechtenstein) before being mounted on carbon tape and sputtered with a gold coating (BAL‐TEC SCD005). Images were visualized in FEI QUANTA 450.

[5] = SPR binding of UMP to immobilized AMSIN (Biacore T100); settings: read-out: Binding affinity of AMSIN to UMP (K D); AMSIN immobilized on CM5, UMP 100–3.125 μM in PBS-T pH 7.5, 25°C; 1:1 Langmuir model
Description: Surface plasmon resonance (SPR) analysis was performed on a Biacore T100 instrument with a CM‐5 sensor chip (GE Healthcare Life Sciences, USA) at 25°C. An amide coupling chemistry strategy was used to immobilize AMSIN on the chip surface. […] Non‐reacted carboxylic groups on the sensor chip surface were blocked by ethanolamine‐HCl (1 M, pH 8.5) for 420 s at a flow rate of 10 μl/min. The final immobilization level was 1,778 RUs. For detecting binding, the analyte UMP was serially diluted twofold with the running buffer PBS‐T (PBS buffer containing 0.05% Tween 20, pH 7.5) at final concentrations of 100–3.125 μM. Then, they were used to flow over the chip surface at a flow rate of 30 μl/min for 60 s. Dissociation was monitored for 120 s by injecting the running buffer suddenly after samples at a flow rate of 30 μl/min for complete removal of specifically and non‐specifically bound biological material from the surface. Responses were measured in RUs as the difference between active and reference channels. The binding curve was fitted with the software BIAevaluation v2.0.1 using 1:1 Langmuir binding model.

[6] = test system: A549 cells; test: Peptide-induced IL-8 release (ELISA); assay type: cell-based, human; settings: 24 h
Description: A549 and HL‐60 cells were purchased from the Cell Resource Center of the Chinese Academy of Medical Sciences (Beijing, China). They were tested for mycoplasma contamination with the Mycoplasma Detection Kit (Solarbio, China) and only negative cultures were used in our experiments. The cells were cultured in complete Dulbecco’s Modified Eagle Medium (DMEM) supplemented with 10% fetal bovine serum (FBS), penicillin (100 units/ml), and streptomycin ([…]) at 37°C in 5% CO2. The culture medium was changed every 2 days. Cells were passaged every 4–5 days with 0.25% trypsin (Gibco, USA). For enzyme‐linked immunosorbent assay (ELISA) (Hara et al, [2008]), A549 or HL‐60 cells were seeded in six‐well plates at a density of 1 × 10^5 cells/well and were incubated at 37°C in 5% CO2 overnight. Medium was aspirated and replaced with fresh complete DMEM supplemented with 10% FBS or serum‐free medium, both containing different concentrations of polypeptides for 24 h. Then, the supernatants were harvested for quantification of the IL‐8 amount in A549 by the Human CXCL8/IL‐8 Quantikine ELISA Kit (R&D Systems Inc., Minneapolis, MN, USA) and the MCP‐1 amount in HL‐60 by the Human MCP‐1 ELISA Kit (Boster Biological Technology Co., Ltd, Wuhan, China) as per the manufactures’ instructions.

[7] = test system: MRSA P1374; test: Mouse peritonitis model; assay type: in vivo
Description: ICR male mice (30 g each mouse; 6 weeks of age) were infected with 0.5 ml of bacterial suspension (1 × 10^8 CFU per mouse) via intraperitoneal injection (i.p.), a dose that achieved 100% mortality within 24 h after infection. […] Vehicle (0.9%) treated control group included 11 mice. Schematic representation is provided in Appendix Fig S16C.

[8] = Circular dichroism spectroscopy with UMP; assay type: binding; settings: 50 mM NH4OAc, room temperature
Description: The spectra were measured at room temperature from 300 to 200 nm by using a quartz cell of 1.0 mm thickness. Data were collected at 1‐nm intervals with a scan rate of 2 nm/s.

## CC[C@H](C)[C@@H]1NC(=O)[C@H](CCCCN)NC(=O)CNC(=O)[C@H](CCCNC(=N)N)NC(=O)[C@@H]2CSSC[C@H](NC(=O)CNC(=O)[C@H](Cc3ccccc3)NC(=O)CN)C(=O)N3CCC[C@H]3C(=O)N[C@@H](Cc3c[nH]c4ccccc34)C(=O)N[C@@H](CC(N)=O)C(=O)N[C@@H](C)C(=O)N[C@@H](Cc3ccc(O)cc3)C(=O)N[C@@H](CCC(=O)O)C(=O)N[C@H]3CSSC[C@H](NC(=O)[C@H]([C@@H](C)O)NC(=O)[C@H](CCC(N)=O)NC(=O)[C@H](CCCNC(=N)N)NC1=O)C(=O)N[C@@H](Cc1c[nH]cn1)C(=O)N[C@H](C(=O)N[C@@H](Cc1ccc(O)cc1)C(=O)O)CSSC[C@H](NC(=O)[C@H](Cc1c[nH]cn1)NC(=O)[C@H](CCCNC(=N)N)NC(=O)[C@H](CC(=O)O)NC3=O)C(=O)N[C@@H](C(C)C)C(=O)N[C@@H](CO)C(=O)N[C@@H](CCCCN)C(=O)NCC(=O)N[C@@H](Cc1ccc(O)cc1)C(=O)N[C@@H]([C@@H](C)O)C(=O)NCC(=O)NCC(=O)N[C@@H](CC(N)=O)C(=O)N2 [AMSIN] (H-GFGCPWNAYECDRHCVSKGYTGGNCRGKIRQTCHCY-OH; disulfide 4-25, 11-33, 15-35; N-terminus and C-terminus assumed)
[1]; SP (strains D39, R6, ST556, and TIGR4)
  Lethal concentrations (C L): about 0.10 μM
[1]; three oral Streptococcus bacteria (S. mutans, S. salivarius, and S. sanguinis)
  C L: 0.5 to 1.4 µM
[2]
  Activity in serum compared with in H2O: slight decrease
[3]; replicate 1
  Inhibition zone: 9.5 mm
[3]; replicate 2
  Inhibition zone: 10 mm
[3]; replicate 3
  Inhibition zone: 9.5 mm
[4]
  Cell shape by scanning electron microscopy: deformation of the cell shape
[5]
  pKd: 4.62
[6]; FBS-containing medium, 25 μg/mL, replicate 1
  IL-8: 93 pg/mL
[6]; FBS-containing medium, 25 μg/mL, replicate 2
  IL-8: 101 pg/mL
[6]; FBS-containing medium, 25 μg/mL, replicate 3
  IL-8: 99 pg/mL
[6]; FBS-containing medium, 50 μg/mL, replicate 1
  IL-8: 116 pg/mL
[6]; FBS-containing medium, 50 μg/mL, replicate 2
  IL-8: 121 pg/mL
[6]; FBS-containing medium, 50 μg/mL, replicate 3
  IL-8: 122 pg/mL
[6]; FBS-containing medium, 100 μg/mL, replicate 1
  IL-8: 111 pg/mL
[6]; FBS-containing medium, 100 μg/mL, replicate 2
  IL-8: 103 pg/mL
[6]; FBS-containing medium, 100 μg/mL, replicate 3
  IL-8: 106 pg/mL
[6]; Serum-Free medium, 25 μg/mL, replicate 1
  IL-8: 51 pg/mL
[6]; Serum-Free medium, 25 μg/mL, replicate 2
  IL-8: 40 pg/mL
[6]; Serum-Free medium, 25 μg/mL, replicate 3
  IL-8: 42 pg/mL
[6]; Serum-Free medium, 50 μg/mL, replicate 1
  IL-8: 40 pg/mL
[6]; Serum-Free medium, 50 μg/mL, replicate 2
  IL-8: 48 pg/mL
[6]; Serum-Free medium, 50 μg/mL, replicate 3
  IL-8: 42 pg/mL
[6]; Serum-Free medium, 100 μg/mL, replicate 1
  IL-8: 67 pg/mL
[6]; Serum-Free medium, 100 μg/mL, replicate 2
  IL-8: 78 pg/mL
[6]; Serum-Free medium, 100 μg/mL, replicate 3
  IL-8: 67 pg/mL
[7]; 1 × 10^8 CFU i.p., AMSIN i.v. 1 h post‐infection 20 mg per kg, then 10 mg per kg once daily, six mice, 7‐day study period
  Survival after peritoneal infection with MRSA P1374: all survived; also recorded: survived the 7‐day study period
[7]; intravenous injection (i.v.)
  Toxicity of administration route in the model: no obvious toxicity
[7]; same six treated mice, observation period
  Duration of continued survival: > 30 days
[8]
  Complex with UMP by CD absorption signatures: a complex was formed
